Paper PMC9911388, “Secondary metabolic profiling of Serratia marcescens NP10 reveals new stephensiolides and glucosamine derivatives with bacterial membrane activity” (Scientific Reports, 2023)

Experiments:
[1] = UPLC C18 retention time used as measure of hydrophobicity; type: physicochemical; conditions: chromatographic; UPLC-MS of NP10 crude extract; C18 Acquity UPLC HSS T3 1.8 μm, 2.1 × 150 mm; H2O/MeCN with 0.1% formic acid; 40 to 95% B from 0.5 to 15 min; 0.300 mL/min
Method: The pooled NP10 crude extract was analysed using UPLC-MS^E at the Liquid Chromatography Mass Spectrometry (LCMS) unit at the Central Analytical Facility (CAF, SU) as outlined in Clements-Decker et al.[4]. Briefly, the UPLC-MS^E was conducted on a Waters Synapt G2 high resolution mass spectrometer linked to an Acquity UPLC™ (Waters Corporation, Milford, USA). Three microlitres (1.00 mg/mL) was separated on an UPLC C18 reverse-phase analytical column (Acquity UPLC® HSS T3, 1.8 μm particle size, 2.1 × 150 mm, Waters Corporation, Dublin, Ireland). The UPLC was conducted with analytical quality H2O containing 0.1% (v/v) formic acid as solution A and MeCN containing 0.1% (v/v) formic acid as solution B at a flow rate of 0.300 mL/min as follows: 60% A from 0 to 0.5 min for loading, linear gradient from 40 to 95% (B) from 0.5 to 15 min and 95 to 40% (B) from 15 to 18 min. The positive mode ESI conditions included: 2.5 kV capillary voltage, 15 V cone voltage, 120 °C source temperature, desolvation temperature of 275 °C, 50 L/h cone gas flow, 650 L/h desolvation gas flow, and m/z range of 200 to 2000 in centroid mode.

[2] = test system: S. aureus RN4220; assay: Resazurin broth microdilution assay (resazurin vitality assay); type: cell-based, Staphylococcus aureus; conditions: for MIC: RP-HPLC purified fractions, MIC = concentration giving ≥ 90% inhibition of growth by fluorometric reading, range 9.8 to 625 µg/mL, 1 h at 37 °C, then resazurin 1.5 h, triplicate, independent duplicate experiments; for IC50: derived from sigmoidal dose-response curves (GraphPad Prism, nonlinear regression, best-fit)
Method: The RP-HPLC purified fractions were tested for antibacterial activity using a broth microdilution assay coupled with the metabolic dye, resazurin[20] against S. aureus RN4220. The principle of the assay was based on the rate of reduction of the resazurin dye to resorufin, with survival of the cell equated to an increased conversion of this dye, while a decreased rate of conversion indicates impairment of cellular metabolism and was thus equated to cell death. Briefly, the test strain was inoculated into 10 mL of cation adjusted-Mueller Hinton broth (Sigma-Aldrich) (CA-MHB containing […]) and incubated at 37 °C for 18 to 24 h. Following overnight incubation, the culture was diluted into the respective media and grown to mid-log phase to obtain an optical density (OD) at 0.3 (± 1.4 × 10^8 cells mL^-1) determined at 600 nm.
The RP-HPLC fractions were then diluted in MeCN to a concentration of […]. Fifty microlitres of each fraction was dispensed into the first row of the respective wells of a clear Greiner CELLSTAR® 96-well culture plate (Merck, Johannesburg, South Africa) containing 50 μL of analytical quality H2O, in triplicate. A microdilution was performed in the 96-well culture in 50 μL of sterile analytical quality H2O in each well and the plate was dried at 50 °C for 18 to 24 h to remove the solvent. Thereafter, 10 μL of target cells in mid-log phase at the adjusted OD was dispensed into each well, resulting in a final antimicrobial concentration range of each fraction from 9.8 to 625 µg/mL and incubated for 1 h at 37 °C. After 1 h incubation, 90 μL of phosphate buffered saline (PBS) was added to each well, followed by 10 μL of resazurin [prepared to a stock solution 0.3 mg/mL in PBS; Sigma-Aldrich (St Louis, MO, USA)]. The plate was then incubated at 37 °C for 1.5 h. Finally, fluorometric readings of the plate were conducted using a Tecan Spark 10 M Multimode Microplate Reader at 560 nm excitation wavelength and 590 nm emission wavelength. Sterile broth and the OD adjusted inoculum were included in the assay as a positive control, while sterile broth was included as a negative control. Tests were performed in triplicate, with independent duplicate experiments.
The percentage inhibition was calculated as described by van Rensburg et al.[20]. […] The MIC vs retention time was plotted using Graphpad Prism version 3.01 for Windows [GraphPad Software, San Diego, USA (www.graphpad.com)].

[3] = test system: S. aureus RN4220; assay: Membrane permeability assay: propidium iodide uptake; type: cell-based, Staphylococcus aureus; conditions: PI 10 µg/mL; for Time to two-fold increase in PI fluorescence from the initial reading: at MIC; for PI fluorescence (membrane permeabilisation): ½MIC and MIC, read over 60 min
Method: To gain insight into whether stephensiolides and glucosamine derivatives cause increased membrane permeability by forming lesions within the cell membrane of S. aureus, membrane permeability was assessed by monitoring the influx of propidium iodide (PI) and subsequent staining of nucleic acids within the cell, resulting in a fluorescent signal[23],[24]. Fluorescence was measured for 1 h at the MIC and ½MIC of compounds 12, 14, 22 and 26 (Fig. 5a and b).
The membrane permeability capabilities of GluA, GluC, StpK and StpU on S. aureus RN4220 was determined using propidium iodide (PI) (Sigma-Aldrich; St. Louis, MO, USA)[23]. This fluorescent dye can only enter bacterial cells through membrane lesions that are big enough to allow the large molecule (PI has a molecular mass of 668.087 g/mol) to pass through, thus providing an indication of changes in membrane permeability. Briefly, black Greiner CELLSTAR 96-well plates (Merck, Johannesburg, South Africa) were prepared with the selected four compounds at MIC and ½MIC and dried as described in the “Resazurin Broth Microdilution Assay” section. The S. aureus RN4220 strain was prepared in CA-MHB and grown to mid-log phase (OD600 of 0.5–0.6) and diluted to OD600 of 0.3. Propidium iodide (stock concentration of 1 mg/mL in water) was added to the cell suspension to a final concentration of 10 µg/mL and cells were incubated in the dark at room temperature for 10 min. Thereafter, 100 µL of OD adjusted PI cells in mid-log phase was dispensed into each well. Sterile broth and the OD adjusted inoculum with PI were included as a positive control, while sterile broth with PI was included as a negative control. Melittin served as a positive lytic control. Fluorometric readings of the plate were conducted in 2 min intervals over 60 min (readings began 120 s after cells were added to the compounds) using a Tecan Spark at 535 nm excitation wavelength and 617 nm emission wavelength.

[4] = test system: S. aureus RN4220; assay: Membrane depolarisation assay: DiSC3(5); type: cell-based, Staphylococcus aureus; conditions: for Time to membrane depolarisation / Time to two-fold increase in DiSC3(5) fluorescent signal: at MIC; for Time to membrane depolarisation: DiSC3(5) assay; for Time to two-fold increase in DiSC3(5) fluorescent signal: from the initial reading at 120 s; for DiSC3(5) fluorescence (membrane depolarisation): ½MIC, MIC and two-fold MIC, DiSC3(5) 0.4 µM, read over 12 min
Method: To gain insight into whether stephensiolides and glucosamine derivatives cause membrane depolarisation of S. aureus, membrane potential was assessed by monitoring the release of the voltage-sensitive dye 3,3′-dipropylthiadicarbocyanine iodide [DiSC3(5)][25],[26].
The membrane depolarisation capabilities (ability to disrupt membrane potential) of GluA, GluC, StpK and StpU against S. aureus RN4220 was determined using the voltage-sensitive fluorescent probe, 3,3'-dipropylthiadicarbocyanine iodide [DiSC3(5)][25],[39]. Due to the cationic charge and hydrophobic nature of DiSC3(5), the fluorescent dye can penetrate and accumulate in lipid bilayers until Nernstian equilibrium is reached, resulting in the quenching of the fluorescent signal. Once depolarisation occurs (i.e., changes in ion permeability and dissipating transmembrane potential), the dye is rapidly released into the medium and subsequently results in the dequenching of the fluorescent signal. Briefly, black 96 well plates were prepared with the selected four compounds at two-fold MIC, MIC and ½MIC as described in the “Resazurin Broth Microdilution Assay” section. The S. aureus RN4220 strain was prepared in CA-MHB and grown to mid-log phase to obtain an OD600 of 0.5–0.6. Cells were harvested by centrifugation at 3000 rpm for 10 min and resuspended in HEPES buffer (5 mM, pH 7.4, containing 20 mM glucose; 100 mM KCl) to OD600 of 0.05. Thereafter, DiSC3(5) (stock concentration of 400 µM in 100% DMSO) was added to the cell suspension to a final concentration of 0.4 µM and cells were incubated in the dark at room temperature for 60 min. Cell suspensions (100 µL) were then dispensed into the wells of the 96 well plate containing the compounds. Sterile broth and the OD adjusted inoculum with DiSC3(5) were included as a non-fluorescent control, sterile broth with DiSC3(5) was included as a sterility control, and melittin was included as membrane depolarisation control. Fluorometric readings of the plate were conducted in 2 min intervals over 12 min (readings began 120 s after cells were added to the compounds) using a Tecan Spark at 622 nm excitation wavelength and 670 nm emission wavelength.

Substance | Rt (retention time, hydrophobicity) [1] [min] | MIC [2] [µg/mL] | further results
Stephensiolide W [Compound 15] | 10.31 |  | 
Stephensiolide U [Compound 12] | 9.57 | 78 | IC50 [2]: 53 µg/mL; Time to two-fold increase in PI fluorescence from the initial reading [3]: ≤ 28 min; PI fluorescence (membrane permeabilisation) [3]: induced an increase in PI fluorescence over time; Time to membrane depolarisation [4]: ≤ 8 min; Time to two-fold increase in DiSC3(5) fluorescent signal [4]: 480 s; DiSC3(5) fluorescence (membrane depolarisation) [4]: induced an increase in DiSC3(5) fluorescence at all concentrations tested
melittin [reference compound] |  |  | PI fluorescence (membrane permeabilisation) [3]: expected increase in fluorescence signal; Time to rapid depolarisation (control) ([4]; depolarisation control): ≤ 240 s
Stephensiolide L [Compound 1] | 5.46 |  | 
Stephensiolide Y [Compound 17] | 11.88 |  | 
Stephensiolide V [Compound 13] | 9.74 |  | 
Stephensiolide P [Compound 7] | 7.00 |  | 
Stephensiolide Q [Compound 8] | 8.09 | ≥ 300 | 
Stephensiolide O [Compound 6] | 6.28 |  | 
Stephensiolide R [Compound 9] | 8.79 | ≥ 300 | 
Stephensiolide N [Compound 3] | 7.17 | ≥ 300 | 
Stephensiolide M [Compound 2] | 6.45 |  | 
Stephensiolide T [Compound 11] | 8.92 | ≥ 300 | MIC ([2]; listed as StpT): no activity observed
Stephensiolide S [Compound 10] | 8.01 |  | 
Stephensiolide X [Compound 16] | 10.87 |  | 
Stephensiolide K [Compound 14] | 10.37 | 39 | IC50 [2]: 25 µg/mL; Time to two-fold increase in PI fluorescence from the initial reading [3]: ≤ 36 min; PI fluorescence (membrane permeabilisation) [3]: induced an increase in PI fluorescence over time; Time to membrane depolarisation [4]: ≤ 12 min; Time to two-fold increase in DiSC3(5) fluorescent signal [4]: 720 s; DiSC3(5) fluorescence (membrane depolarisation) [4]: induced an increase in DiSC3(5) fluorescence at all concentrations tested
